According to the CheMixHub ionic liquid set:
± gives the uncertainty stated by the source.

Test: xn = mol fraction of the nth substance listed

CC[n+]1ccn(C)c1.N#C[N-]C#N + O
viscosity (288.15 K, 100 kPa, x2 = 0): 20 ± 1.2 mPa·s | viscosity (288.15 K, 100 kPa, x2 = 0.1016): 17.49 ± 0.96 mPa·s | viscosity (288.15 K, 100 kPa, x2 = 0.2014): 15.14 ± 0.77 mPa·s | viscosity (288.15 K, 100 kPa, x2 = 0.2999): 13.02 ± 0.61 mPa·s | viscosity (288.15 K, 100 kPa, x2 = 0.4015): 11.08 ± 0.45 mPa·s | viscosity (288.15 K, 100 kPa, x2 = 0.5106): 9.24 ± 0.32 mPa·s | viscosity (288.15 K, 100 kPa, x2 = 0.5934): 7.86 ± 0.24 mPa·s | viscosity (288.15 K, 100 kPa, x2 = 0.7465): 5.45 ± 0.13 mPa·s | viscosity (288.15 K, 100 kPa, x2 = 0.7974): 4.58 ± 0.1 mPa·s | viscosity (288.15 K, 100 kPa, x2 = 0.9004): 2.76 ± 0.04 mPa·s | viscosity (288.15 K, 100 kPa, x2 = 0.9498): 1.93 ± 0.03 mPa·s | viscosity (293.15 K, 100 kPa, x2 = 0): 16.9 ± 1 mPa·s | viscosity (293.15 K, 100 kPa, x2 = 0.1016): 14.89 ± 0.81 mPa·s | viscosity (293.15 K, 100 kPa, x2 = 0.2014): 12.98 ± 0.66 mPa·s | viscosity (293.15 K, 100 kPa, x2 = 0.2999): 11.23 ± 0.52 mPa·s | viscosity (293.15 K, 100 kPa, x2 = 0.4015): 9.59 ± 0.39 mPa·s | viscosity (293.15 K, 100 kPa, x2 = 0.5106): 8 ± 0.28 mPa·s | viscosity (293.15 K, 100 kPa, x2 = 0.5934): 6.83 ± 0.21 mPa·s | viscosity (293.15 K, 100 kPa, x2 = 0.7465): 4.74 ± 0.11 mPa·s | viscosity (293.15 K, 100 kPa, x2 = 0.7974): 3.99 ± 0.09 mPa·s | viscosity (293.15 K, 100 kPa, x2 = 0.9004): 2.41 ± 0.04 mPa·s | viscosity (293.15 K, 100 kPa, x2 = 0.9498): 1.69 ± 0.02 mPa·s | electrical conductivity (293.2 K, 101 kPa, x2 = 0.6): 4.47 ± 0.1 S/m | electrical conductivity (293.2 K, 101 kPa, x2 = 0.8): 5.69 ± 0.13 S/m | viscosity (298.15 K, 100 kPa, x2 = 0): 14.54 ± 0.88 mPa·s | viscosity (298.15 K, 100 kPa, x2 = 0.1016): 12.86 ± 0.7 mPa·s | viscosity (298.15 K, 100 kPa, x2 = 0.2014): 11.23 ± 0.57 mPa·s | viscosity (298.15 K, 100 kPa, x2 = 0.2999): 9.77 ± 0.46 mPa·s | viscosity (298.15 K, 100 kPa, x2 = 0.4015): 8.37 ± 0.34 mPa·s | viscosity (298.15 K, 100 kPa, x2 = 0.5106): 7.01 ± 0.24 mPa·s | viscosity (298.15 K, 100 kPa, x2 = 0.5934): 5.99 ± 0.19 mPa·s | viscosity (298.15 K, 100 kPa, x2 = 0.7465): 4.16 ± 0.1 mPa·s | viscosity (298.15 K, 100 kPa, x2 = 0.7974): 3.5 ± 0.07 mPa·s | viscosity (298.15 K, 100 kPa, x2 = 0.9004): 2.13 ± 0.03 mPa·s | viscosity (298.15 K, 100 kPa, x2 = 0.9498): 1.5 ± 0.02 mPa·s | viscosity (298.15 K, 101 kPa, x2 = 0): 14.9 ± 0.62 mPa·s | viscosity (298.15 K, 101 kPa, x2 = 0.2248): 11.24 ± 0.46 mPa·s | viscosity (298.15 K, 101 kPa, x2 = 0.3042): 10.14 ± 0.41 mPa·s | viscosity (298.15 K, 101 kPa, x2 = 0.4308): 8.39 ± 0.34 mPa·s | viscosity (298.15 K, 101 kPa, x2 = 0.7944): 3.61 ± 0.15 mPa·s | viscosity (298.15 K, 101 kPa, x2 = 0.8803): 2.46 ± 0.1 mPa·s | viscosity (303.15 K, 100 kPa, x2 = 0): 12.63 ± 0.77 mPa·s | viscosity (303.15 K, 100 kPa, x2 = 0.1016): 11.21 ± 0.61 mPa·s | viscosity (303.15 K, 100 kPa, x2 = 0.2014): 9.84 ± 0.5 mPa·s | viscosity (303.15 K, 100 kPa, x2 = 0.2999): 8.59 ± 0.4 mPa·s | viscosity (303.15 K, 100 kPa, x2 = 0.4015): 7.38 ± 0.3 mPa·s | viscosity (303.15 K, 100 kPa, x2 = 0.5106): 6.19 ± 0.22 mPa·s | viscosity (303.15 K, 100 kPa, x2 = 0.5934): 5.29 ± 0.16 mPa·s | viscosity (303.15 K, 100 kPa, x2 = 0.7465): 3.67 ± 0.09 mPa·s | viscosity (303.15 K, 100 kPa, x2 = 0.7974): 3.09 ± 0.07 mPa·s | viscosity (303.15 K, 100 kPa, x2 = 0.9004): 1.89 ± 0.03 mPa·s | viscosity (303.15 K, 100 kPa, x2 = 0.9498): 1.34 ± 0.02 mPa·s | viscosity (308.15 K, 100 kPa, x2 = 0): 11.05 ± 0.67 mPa·s | viscosity (308.15 K, 100 kPa, x2 = 0.1016): 9.86 ± 0.54 mPa·s | viscosity (308.15 K, 100 kPa, x2 = 0.2014): 8.69 ± 0.44 mPa·s | viscosity (308.15 K, 100 kPa, x2 = 0.2999): 7.61 ± 0.36 mPa·s | viscosity (308.15 K, 100 kPa, x2 = 0.4015): 6.55 ± 0.27 mPa·s | viscosity (308.15 K, 100 kPa, x2 = 0.5106): 5.5 ± 0.19 mPa·s | viscosity (308.15 K, 100 kPa, x2 = 0.5934): 4.71 ± 0.15 mPa·s | viscosity (308.15 K, 100 kPa, x2 = 0.7465): 3.27 ± 0.08 mPa·s | viscosity (308.15 K, 100 kPa, x2 = 0.7974): 2.76 ± 0.06 mPa·s | viscosity (308.15 K, 100 kPa, x2 = 0.9004): 1.7 ± 0.03 mPa·s | viscosity (308.15 K, 100 kPa, x2 = 0.9498): 1.2 ± 0.02 mPa·s | electrical conductivity (308.2 K, 101 kPa, x2 = 0.2): 3.89 ± 0.08 S/m | electrical conductivity (308.2 K, 101 kPa, x2 = 0.6): 6.36 ± 0.14 S/m | viscosity (313.15 K, 100 kPa, x2 = 0): 9.76 ± 0.59 mPa·s | viscosity (313.15 K, 100 kPa, x2 = 0.1016): 8.74 ± 0.48 mPa·s | viscosity (313.15 K, 100 kPa, x2 = 0.2014): 7.73 ± 0.39 mPa·s | viscosity (313.15 K, 100 kPa, x2 = 0.2999): 6.79 ± 0.32 mPa·s | viscosity (313.15 K, 100 kPa, x2 = 0.4015): 5.86 ± 0.24 mPa·s | viscosity (313.15 K, 100 kPa, x2 = 0.5106): 4.93 ± 0.17 mPa·s | viscosity (313.15 K, 100 kPa, x2 = 0.5934): 4.23 ± 0.13 mPa·s | viscosity (313.15 K, 100 kPa, x2 = 0.7465): 2.93 ± 0.07 mPa·s | viscosity (313.15 K, 100 kPa, x2 = 0.7974): 2.48 ± 0.05 mPa·s | viscosity (313.15 K, 100 kPa, x2 = 0.9004): 1.53 ± 0.02 mPa·s | viscosity (313.15 K, 100 kPa, x2 = 0.9498): 1.09 ± 0.02 mPa·s | viscosity (313.15 K, 101 kPa, x2 = 0.2248): 7.79 ± 0.32 mPa·s | viscosity (313.15 K, 101 kPa, x2 = 0.8803): 1.73 ± 0.07 mPa·s | viscosity (313.15 K, 101 kPa, x2 = 0.953): 1.08 ± 0.04 mPa·s | electrical conductivity (313.2 K, 101 kPa, x2 = 0.2): 4.32 ± 0.09 S/m | electrical conductivity (313.2 K, 101 kPa, x2 = 0.8): 8.83 ± 0.19 S/m | viscosity (318.15 K, 100 kPa, x2 = 0): 8.69 ± 0.53 mPa·s | viscosity (318.15 K, 100 kPa, x2 = 0.1016): 7.79 ± 0.43 mPa·s | viscosity (318.15 K, 100 kPa, x2 = 0.2014): 6.92 ± 0.35 mPa·s | viscosity (318.15 K, 100 kPa, x2 = 0.2999): 6.1 ± 0.28 mPa·s | viscosity (318.15 K, 100 kPa, x2 = 0.4015): 5.27 ± 0.21 mPa·s | viscosity (318.15 K, 100 kPa, x2 = 0.5106): 4.45 ± 0.16 mPa·s | viscosity (318.15 K, 100 kPa, x2 = 0.5934): 3.81 ± 0.12 mPa·s | viscosity (318.15 K, 100 kPa, x2 = 0.7465): 2.64 ± 0.06 mPa·s | viscosity (318.15 K, 100 kPa, x2 = 0.7974): 2.24 ± 0.05 mPa·s | viscosity (318.15 K, 100 kPa, x2 = 0.9004): 1.39 ± 0.02 mPa·s | viscosity (318.15 K, 100 kPa, x2 = 0.9498): 0.99 ± 0.01 mPa·s | electrical conductivity (318.2 K, 101 kPa, x2 = 0.2): 4.77 ± 0.1 S/m | viscosity (328.15 K, 101 kPa, x2 = 0.7944): 1.9 ± 0.08 mPa·s | electrical conductivity (328.2 K, 101 kPa, x2 = 0.2): 5.74 ± 0.12 S/m | electrical conductivity (338.2 K, 101 kPa, x2 = 0.4): 8.22 ± 0.17 S/m | electrical conductivity (338.2 K, 101 kPa, x2 = 0.6): 10.6 ± 0.22 S/m | viscosity (343.15 K, 101 kPa, x2 = 0): 5.48 ± 0.23 mPa·s

CC1COC(=O)O1 (stereo unspecified) + CC[n+]1ccn(C)c1.O=S(=O)([N-]S(=O)(=O)C(F)(F)F)C(F)(F)F
viscosity (303.15 K, 101.3 kPa, x2 = 0): 2.246 ± 0.047 mPa·s | viscosity (318.15 K, 101.3 kPa, x2 = 0): 1.73 ± 0.037 mPa·s | viscosity (338.15 K, 101.3 kPa, x2 = 0): 1.294 ± 0.028 mPa·s
